The values below come from patent publication US8716478B2, “Boron-containing small molecules” (Anacor Pharmaceuticals, Inc., priority 2010, dated 2014).

Each structure is given as a SMILES string. Like-named read-outs stand apart in the source and are kept apart here.

Data set [1] relates to Schistosoma mansoni schistosomula. The data set is described as follows: Schistosoma mansoni schistosomula phenotypic screen. To be noted: for phenotypes caused by positive control compounds in schistosomula: positive controls; for Schistosomula (juvenile infective form) worm screen phenotype, 24 h: Second Set, 5 uM. The source says: (§1) Puerto Rican isolates of S. mansoni using Biomphalaria glabrata snails and golden hamsters as intermediate and definitive hosts, respectively, were maintained and handled in the University of California-San Francisco Sandler Center for Tropical Medicine. Patent B. glabrata snails (6-8 weeks after exposure to 5-10 infectious miracidia) were induced to shed infective larvae (cercariae) under light stimulus into the surrounding water. Cercariae were washed in rounds of ice-cold water and concentrated through and over sieves of varying pore sizes. They were then mechanically sheared (separation of heads from tails) as described in Colley D G, et al. Exp Parasitol 1974, 35:44-51, in ice-cold Incomplete Medium 169 (as described in Basch P F. J Parasitol 1981, 67:179-185, minus FBS and antibiotics) by passing 15 times through a double headed 22-gauge syringe needle connected to two 10 mL syringes. The resulting cercarial heads (schistosomula) were separated from their tails by swirling in a petri dish. Concentrated schistosomula were added to a sterile 1.5 mL centrifuge tube and allowed to settle over ice. Schistosomula were transferred to a sterile environment and washed 4 times in Incomplete Medium 169 prior to plating.
(§2) Two sets of screening were performed. In the first set, compounds were screened against schistosomula and observations were made at 24 hours, 2 days, 3 days, 4 days, and 6 days. In the second set, compounds were screened against schistosomula with observations at 24 hours, 2 days, 3 days, and 4 days and adult worms at 7 hours, 24 hours, 4 days, and 6 days.
Plates contain 200 schistosomula/well in […] complete Basch medium and were maintained at 37° C. in a 5% CO2 atmosphere. All compounds were tested in duplicate with at least two experimental replicates. Compounds and control compounds were added to the plates using the Biomek FXp using 96-well disposable tips. Final concentration of DMSO in each well was 0.5%.
(§3) A semi-quantitative and controlled nomenclature for phenotypes that can arise as a result of compound insult to both schistosomula and adults was utilized (Abdulla M H, et al., PLoS Negl Trop Dis 2009, 3:e478). Phenotypes were recorded by visual inspection and on a flexible time basis but at least at 24 h and 4 day time-points in the case of large scale screening. […] To help eliminate bias, two screen analysts scored phenotypes ‘blind’ both to knowledge of the contents of each screening plate and the phenotypes scored by his/her colleague. Upon completing their individual assessments, each analyst's ‘hit sheet’ was then compared to derive a ‘consensus hit sheet’. Discrepancies in analysts' hit sheets were re-evaluated under the microscope to eventually make a consensus hit call.
(§4) Hyper-coiled and coiled represent a verbal description of the visual phenotype as compared to the DMSO control. The + and ++ and +++ means more of the phenotype which preceded it. The − means less of the phenotype which preceded it. Results

Data set [2] has as its system Schistosoma mansoni adult worms. The data set is described as follows: Schistosoma mansoni adult worm phenotypic screen. To be noted: for phenotypes caused by positive control compounds in adult worms: positive controls.
Source text: as §1, §2
Given the delicacy and size (0.5-1.5 cm in length) of this stage all operations were performed manually by the Sandler Center. 24-well plates were set up with compound (final DMSO concentration=0.5%) containing approximately 5 pairs of worms (S. mansoni has separate sexes) in 2 mL complete Basch medium per well. Plates were maintained at 37° C. in a 5% CO2 atmosphere. All compounds were tested in duplicate with at least two experimental replicates.
as §3, §4

Data set [3] is described as follows: Pharmacokinetics and oral bioavailability after IV and PO dosing. Type of data set: in vivo, female CD-1 mice. To be noted: plasma; for bioavailability / AUC: female, CD-1, mouse; for bioavailability: po; for AUC: 10 mg/kg oral suspension dose; for clearance: mouse, 5 mg/kg, female CD-1 mice, intravenous. As for the experimental part:
The objective of this study was to evaluate the pharmacokinetics and oral bioavailability of PDE4 inhibitors following intravenous (IV) administration and oral (PO) doses in female CD-1 mice.
After dosing, blood samples were collected through 24 h, twice from each animal at specific times (3 mice/time point), into microcentrifuge tubes containing K2EDTA (anticoagulant), stored on wet ice and processed for plasma. The plasma samples were analyzed for concentrations of parent compound by LC/MS/MS using an internal standard/peak area method. Pharmacokinetic analysis of the mean plasma concentration-time profiles following IV and PO administration was performed.
[…] Dosing solutions for intravenous administration were prepared in 55% PEG300/25% PG/20% water. Oral dosing used a suspension prepared in 1% CMC in water with 0.1% Tween 80.
After dosing, blood samples were collected through 24 h, twice from each animal via retro-orbital bleed (˜0.1 mL, 1st time point) or cardiac puncture (˜0.6 mL, 2nd time point) at specific times (3 mice/time point), into microcentrifuge tubes containing K2EDTA (anticoagulant) and stored on wet ice prior to processing.
Plasma was prepared by centrifugation of blood samples for 6 min at approximately 2000×g or 6000 rpm at 4° C. All processed plasma samples (˜50 μL and 300 μL) were transferred to analysis tubes, placed on dry ice immediately and later stored at −80° C. until analysis for concentrations of experimental compound by LC/MS/MS.
Mouse IV clearance, Mouse Oral AUC and Oral Bioavailability are provided below. 6-(1-Hydroxy-1,3-dihydrobenzo[c][1,2]oxaborol-5-yloxy)-2-(2-isopropoxyethoxy)nicotinonitrile (D140) and 6-(1-hydroxy-1,3-dihydrobenzo[c][1,2]oxaborol-5-yloxy)-2-(4-oxopentyloxy)nicotinonitrile (D141) are disclosed in U.S. patent application Ser. No. 12/399,015, filed Mar. 5, 2009.

For a further data set, the system named is human PDE4 enzyme. The data set can be described thus: Phosphodiesterase 4 (PDE4) inhibition, semi-purified enzyme from human U937 cells. Type of data set: biochemical.
The test system of data set [4] is TNF-α in peripheral blood mononuclear cells (PBMCs). The data set can be described thus: TNF-α inhibition in LPS-stimulated peripheral blood mononuclear cells. The format is cell-based. Conditions: PBMC. Here is the method:
Peripheral blood mononuclear cells (PBMCs) pooled from 10-20 donors were obtained from a local blood bank, ficoll gradient purified, and stored frozen in liquid nitrogen. Cells were thawed and seeded into 96-well plates at 5×10^5 cells/well in RPMI 1640 with 10% heat-inactivated fetal calf serum (MediaTech, Inc, Hearndon, Va., USA), Test articles were evaluated at the indicated concentrations in 150 μL media containing <2% DMSO, final, with stimulant and PBMCs. Cells were stimulated with lipopolysaccharide (LPS, phenol-extract from E. coli, Sigma-Aldrich, St. Louis, Mo.) at 1 μg/mL. Stimulation was with LPS for 24 h to measure TNF-α. Cytokines in supernatants were analyzed with a FACSArray flow cytometer (BD Biosciences, San Jose, Calif., USA) using the BD Cytometric Bead Array (CBA) Flex Set (BD Biosciences). IC50 values were calculated using the four parameter logistic equation.

The test system of a further data set is TNF-α. The data set is described as follows: In vivo TNF-α release in LPS treated mice. The arrangement: species or system Swiss Webster mice. As for the experimental part: In vivo TNF-α release was measured in Swiss Webster mice, 10/group. Animals were dosed via oral gavage with drug 1% CMC suspension. Thirty minutes later LPS, 1.5 mg/kg was administered by intraperitoneal injection. Ninety minutes later animals were sacrificed, blood was collected by exsangination and serum prepared for analysis. TNF-α concentration was assessed by ELISA, non-drug treated animals had TNF-α levels 1000-3000 pg/mL. 6-(1-Hydroxy-1,3-dihydrobenzo[c][1,2]oxaborol-5-yloxy)-2-(2-isopropoxyethoxy)nicotinonitrile (D140) and 6-(1-hydroxy-1,3-dihydrobenzo[c][1,2]oxaborol-5-yloxy)-2-(4-oxopentyloxy)nicotinonitrile (D141) are disclosed in U.S. patent application Ser. No. 12/399,015, filed Mar. 5, 2009.

[5] abbreviates: under similar conditions, read-out: PDE4 IC50 value.
The mark [6] stands for this setting: under similar conditions, read-out: TNF-α IC50 value.

As to `O=C(C1CCCCC1)N1CC(=O)N2CCc3ccccc3C2C1` (stereo not shown) [PZQ, reference compound], the “phenotypes caused by positive control compounds in schistosomula” value (from here on “phenotypes caused … in schistosomula”) in data set [1] was “dose-dependent, rapid and severe phenotypes”. Also, the “phenotypes caused by positive control compounds in adult worms” value (“phenotypes caused … in adult worms” for short) in data set [2] is “dose-dependent, rapid and severe phenotypes”.

Turning to `N#Cc1ccc(Oc2ccc3c(c2)COB3O)nc1` [6-(1-hydroxy-1,3-dihydrobenzo[c][1,2]oxaborol-5-yloxy)nicotinonitrile], in data set [1] (24 h), the “Schistosomula (juvenile infective form) worm screen phenotype, 24 h” value was “R−, O,”. Moreover, in data set [2] (5 uM), the “Adult worm screen phenotype, 7 h” value is “O−”.

In the case of `O=C(Nc1ccc(Oc2ccc(Cl)cc2)c(Cl)c1)c1cc(I)cc(I)c1O` [rafoxanide, reference compound], the “phenotypes caused … in schistosomula” value in data set [1] was “dose-dependent, rapid and severe phenotypes”. Besides, the “phenotypes caused … in adult worms” value in data set [2] is “dose-dependent, rapid and severe phenotypes”.

Take `O=C(Nc1ccc([N+](=O)[O-])cc1Cl)c1cc(Cl)ccc1O` [niclosamide, reference compound]: the “phenotypes caused … in schistosomula” value in data set [1] is “dose-dependent, rapid and severe phenotypes”. Further, in data set [2], the “phenotypes caused … in adult worms” value is “dose-dependent, rapid and severe phenotypes”.

As usually defined, the bioavailability is the share of a dose that reaches the circulation, judged against a reference dose that is usually intravenous. Read a low bioavailability as little systemic uptake. As usually defined, the AUC is the area under the concentration-time curve, a measure of exposure. As a reminder, the IC50 is the concentration that gives 50% inhibition. For the molecule `CC(C)OCCOc1nc(Oc2ccc3c(c2)COB3O)c(Cl)cc1C#N` [Compound D230, 5-chloro-6-(1-hydroxy-1,3-dihydrobenzo[c][1,2]oxaborol-5-yloxy)-2-(2-isopropoxyethoxy)nicotinonitrile], the bioavailability in data set [3] came to 60%. This molecule yielded an AUC in data set [3] of 3 µg·h/mL. The clearance in data set [3] is 2.2 L/h/kg. Further, the IC50 amounted to 5.2 nM in the data set with human PDE4 enzyme (1 μM cAMP, 20 minutes at 25° C., read-out: PDE4 IC50) and 2.5 nM in data set [4] (PBMCs, LPS 1 μg/mL for 24 h, read-out: Proinflammatory TNF-α IC50). Also, the “% Inhibition of TNFa Blood Levels in LPS Treated Mice” value (shortened to “% Inhibition of TNFa Blood Levels”) stood at 39% with TNF-α (Oral Dose 0.1 mg/kg); 59% in the data set on TNF-α (Oral Dose 0.3 mg/kg); 55% in the data set with TNF-α (Oral Dose 0.5 mg/kg); 76% with TNF-α (Oral Dose 1 mg/kg); 80% in the data set on TNF-α (Oral Dose 3 mg/kg); 77% with TNF-α (Oral Dose 5 mg/kg). Besides, the “% Inhibition of TNFa Blood Levels” value in the data set with TNF-α (Oral Dose 10 mg/kg) is recorded as 77%.

As for `CC(C)OCCOc1nc(Oc2ccc3c(c2)COB3O)ccc1C#N` [Compound D140, 6-(1-Hydroxy-1,3-dihydrobenzo[c][1,2]oxaborol-5-yloxy)-2-(2-isopropoxyethoxy)nicotinonitrile], in data set [3], the bioavailability came to 24%. Besides, in data set [3], the exposure (AUC) is 0.81 µg·h/mL. Further, the clearance in data set [3] was 3.4 L/h/kg. The IC50 in the data set with human PDE4 enzyme (setting [5]) was found to be 9 nM; in data set [4] (setting [6]), 3.6 nM. For the same molecule, in data set [2] (5 uM), the “Adult worm screen phenotype, 7 h” value is listed as “O++”. The “% Inhibition of TNFa Blood Levels” value with TNF-α (Oral Dose 0.3 mg/kg) was determined as 26.4%; in the data set with TNF-α (Oral Dose 0.5 mg/kg), 30%; in the data set on TNF-α (Oral Dose 1 mg/kg), 50.2%; in the data set on TNF-α (Oral Dose 3 mg/kg), 59.35%; in the data set on TNF-α (Oral Dose 5 mg/kg), 72%; with TNF-α (Oral Dose 10 mg/kg) it was 74%. Besides, the “% Inhibition of TNFa Blood Levels” value in the data set with TNF-α (Oral Dose 30 mg/kg) came out at 83.5%.

Consider `CC(=O)CCCOc1nc(Oc2ccc3c(c2)COB3O)ccc1C#N` [Compound D141, 6-(1-hydroxy-1,3-dihydrobenzo[c][1,2]oxaborol-5-yloxy)-2-(4-oxopentyloxy)nicotinonitrile, reference compound], for which, in data set [3], the bioavailability is 32%. This molecule also yielded an exposure (AUC) in data set [3] of 1.3 µg·h/mL. Further, the clearance in data set [3] is 2.6 L/h/kg. In addition, the values for the concentration for half-maximal inhibition (IC50) (in the data set with human PDE4 enzyme (setting [5]); in data set [4] (setting [6])) were 3.1 nM and 1.2 nM, respectively. For the same molecule, the “% Inhibition of TNFa Blood Levels” value in the data set with TNF-α (Oral Dose 3 mg/kg) came to 36.1%; in the data set on TNF-α (Oral Dose 10 mg/kg) it was 52.4%; in the data set on TNF-α (Oral Dose 30 mg/kg) it was 67.1%.

As for `N#Cc1ccc(Oc2ccc3c(c2)COB3O)nc1OC1CCCC1` [2-Cyclopentyloxy-6-(1-hydroxy-1,3-dihydro-benzo[c][1,2]oxaborol-5-yloxy)-nicotinonitrile], the “Schistosomula (juvenile infective form) worm screen phenotype, 24 h” value in data set [1] (24 h) is “R, O+”. Moreover, in data set [2] (5 uM), the “Adult worm screen phenotype, 7 h” value is given as “O+”. Further, the “Adult worm screen phenotype, 24 h” value in data set [2] (5 uM, 24 h) is reported as “O−”.

For `COc1nc(Oc2cc3c(cc2F)B(O)OC3)ccc1C#N` [6-(6-Fluoro-1-hydroxy-1,3-dihydrobenzo[c][1,2]oxaborol-5-yloxy)-2-methoxynicotinonitrile], the “schistosomula phenotype, 24 h” value in data set [1] (First Set, 24 h) is “O+”. In data set [2] (5 uM), the “Adult worm screen phenotype, 7 h” value is on record as “O++”.
